Reference: PMC11521309, “A novel 4-aminoquinoline chemotype with multistage antimalarial activity and lack of cross-resistance with PfCRT and PfMDR1 mutants” (PLOS Pathogens, 2024)
“And” between values parts separate entries of the source, which are not always exact repeats. Equal entries are not always repeated.

Key:
[1] = tested on: P. falciparum NF54-Pfs16-GFP-Luc stage IV-V gametocytes; experiment: Mature gametocyte (stages IV-V) viability, luciferase, 48 h; assay type: cell-based, Plasmodium falciparum; details: 5 μM
Description: P. falciparum NF54-Pfs16-GFP-Luc (MRA-1217), a highly gametocyte-producing strain, was cultured following standard procedures. NF54-Luc ABS parasites were sorbitol-synchronized as previously described and cultured to reach 8–10% parasitemia as mature trophozoites prior to starting gametogenesis induction via nutrient deficit stress. Briefly, stress was induced by replacing only 40% of the culture medium and returning cultures to a 37°C incubation. Cultures were treated with 50 mM N-acetylglucosamine for 10 days to remove ABS parasites. Mature gametocytes (stages IV-V) were isolated using magnetic columns and incubated at 2% gametocytemia and 1.5% hematocrit in 96-well plates containing the test compounds for 48 hours at 37°C, following standard P. falciparum culturing conditions. Methylene blue was used as a gametocytocidal control alongside drug-free wells. Luciferase activity was assessed by adding 40 μL of luciferin substrate (Promega) to 40 μL of parasite lysates and detecting bioluminescence at an integration constant of 10s with the BioTek Cytation 5 Cell Imaging Multimode Reader.

[2] = tested on: Hz formation in ABS P. falciparum 3D7 parasites; experiment: Cellular heme fractionation assay; assay type: cell-based, Plasmodium falciparum
Description: A heme fractionation assay was used to measure the inhibition of Hz formation in cultured ABS P. falciparum 3D7 parasites as previously described. […] Late trophozoites were harvested after 32 hours of incubation by lysing RBCs with 0.05% saponin followed by multiple washes with 1 × PBS (pH 7.5) to remove any residual traces of hemoglobin. The parasite pellet was resuspended in PBS and the total number of trophozoites isolated was quantified using flow cytometry. Contents of the trophozoite pellet were released by hypotonic lysis and sonication. After centrifugation, treatments with HEPES buffer (pH 7.4), sodium dodecyl sulfate, pyridine, and NaOH, allowed us to separate the fractions corresponding to the different heme species of interest. A microplate reader was employed to measure the UV-visible spectrum of each heme fraction as a Fe(III)heme-pyridine complex. Fractions of undigested hemoglobin, “free” heme, and Hz were quantified using a heme standard curve based on the mass of each heme-Fe species per mature trophozoite (fg/cell), obtained by dividing the total amount of each heme species by the corresponding number of parasites in that fraction as determined by flow cytometry. Statistical comparisons and analyses for trends employed Students’ t-tests (GraphPad Prism version 9).

[3] = tested on: P. berghei ookinete formation; experiment: In vitro inhibition of ookinete formation (nLuc conversion assay), 24 h; assay type: cell-based, Plasmodium berghei; details: for % Inhibition of ookinete conversion: single assays
Description: To measure the inhibition of gamete conversion into ookinetes, a mutant luciferase-expressing P. berghei line (nLuc) was intraperitoneally injected into BALB/c mice. After 3–4 days, gametocyte-carrying blood samples were collected. In vitro compound testing was carried out by exposing 4 μL of infected blood mixed with 80 μL of culture medium (RPMI-1640 supplemented with 25 mM HEPES, 50 mg/L hypoxanthine, and 1% penicillin/streptomycin/neomycin at pH 8.3) to a range of drug concentrations for 24 hours at 21°C. Following the incubation, 20 μL of nLuc substrate (Nano-Glo Luciferase Assay System, Promega) was added to each well, and luminescence was measured in a luminometer. Increased light emission correlated with nLuc production and subsequent luciferase activity due to in vitro fertilization and ookinete conversion, as luciferase expression in this parasite line is regulated by the CTRP promoter that is ookinete-specific. Conversion inhibition was calculated as the percentage of luciferase activity of drug-exposed wells relative to untreated ones, from which IC50 values were interpolated.

[4] = 0.5x IC50, 32 h, single replicates
[5] = 0.5–3.0 × IC50 vs untreated control
[6] = 1x IC50, 32 h, single replicates
[7] = 2x IC50, 32 h, single replicates
[8] = 2.5x IC50, 32 h, single replicates
[9] = 3x IC50, 32 h, single replicates

## COc1cc2nccc(Nc3cccc(Oc4ccccc4)c3)c2cc1OC [LDT-623]
[1]; mean, N = 3
  % Inhibition of viability, mature gametocytes: 62% and 61.67%
[1]; single replicates
  % Inhibition of viability, mature gametocytes: 78.00% and 67.00% and 40.00%
[2]; 0.5x IC50, 32 h, Mean
  %Hb: 6.49%
  %Heme: 9.94%
  %Hemozoin: 83.57%
  Hb Fe (fg/troph): 3.40 fg/troph
  Heme Fe (fg/troph): 5.28 fg/troph
  Hemozoin Fe (fg/troph): 44.40 fg/troph
  Total Fe (fg/troph): 54.33 fg/troph
[2]; [4]
  %Hb: 5.0225% and 6.9078% and 7.3751% and 6.6526%
  %Heme: 10.3876% and 10.3966% and 9.0005% and 9.9788%
  %Hemozoin: 84.5899% and 82.6957% and 83.6245% and 83.3686%
  Hb Fe (fg/troph): 2.7844 fg/troph and 3.6098 fg/troph and 3.8007 fg/troph and 3.8647 fg/troph
  Heme Fe (fg/troph): 5.7588 fg/troph and 5.4329 fg/troph and 4.6383 fg/troph and 5.7970 fg/troph
  Hemozoin Fe (fg/troph): 46.8963 fg/troph and 43.2142 fg/troph and 43.0950 fg/troph and 48.4315 fg/troph
  Total Fe (fg/troph): 55.44 fg/troph and 52.26 fg/troph and 51.53 fg/troph and 58.09 fg/troph
[2]; [5]
  effect on Hz levels: significant concentration-dependent decreases in the levels of Hz
  effect on undigested Hb: augmented percentage of undigested Hb was observed starting at 0.5 × IC50
  effect on “free” heme: statistically significant increase in “free” heme in a concentration-dependent manner
[2]; 1x IC50, 32 h, Mean
  %Hb: 7.02%
  %Heme: 10.55%
  %Hemozoin: 82.43%
  Hb Fe (fg/troph): 3.49 fg/troph
  Heme Fe (fg/troph): 5.57 fg/troph
  Hemozoin Fe (fg/troph): 44.22 fg/troph
  Total Fe (fg/troph): 54.30 fg/troph
[2]; [6]
  %Hb: 4.1032% and 6.0183% and 9.3168% and 8.6327%
  %Heme: 11.3186% and 11.3158% and 8.7646% and 10.7959%
  %Hemozoin: 84.5783% and 82.6659% and 81.9186% and 80.5714%
  Hb Fe (fg/troph): 2.0348 fg/troph and 3.3626 fg/troph and 5.0638 fg/troph and 4.9539 fg/troph
  Heme Fe (fg/troph): 5.6130 fg/troph and 6.3225 fg/troph and 4.7637 fg/troph and 6.1953 fg/troph
  Hemozoin Fe (fg/troph): 41.9435 fg/troph and 46.1884 fg/troph and 44.5239 fg/troph and 46.2360 fg/troph
  Total Fe (fg/troph): 49.59 fg/troph and 55.87 fg/troph and 54.35 fg/troph and 57.39 fg/troph
[2]; 2x IC50, 32 h, Mean
  %Hb: 5.86%
  %Heme: 12.64%
  %Hemozoin: 81.50%
  Hb Fe (fg/troph): 3.50 fg/troph
  Heme Fe (fg/troph): 6.66 fg/troph
  Hemozoin Fe (fg/troph): 43.79 fg/troph
  Total Fe (fg/troph): 54.83 fg/troph
[2]; [7]
  %Hb: 4.9454% and 8.0340% and 6.4023% and 4.0696%
  %Heme: 13.6029% and 11.9660% and 11.4824% and 13.5021%
  %Hemozoin: 81.4516% and 80.0000% and 82.1153% and 82.4284%
  Hb Fe (fg/troph): 2.6441 fg/troph and 4.5716 fg/troph and 3.2970 fg/troph and 2.3379 fg/troph
  Heme Fe (fg/troph): 7.2727 fg/troph and 6.8090 fg/troph and 5.9132 fg/troph and 7.7566 fg/troph
  Hemozoin Fe (fg/troph): 43.5476 fg/troph and 45.5226 fg/troph and 42.2872 fg/troph and 47.3530 fg/troph
  Total Fe (fg/troph): 53.46 fg/troph and 56.90 fg/troph and 51.50 fg/troph and 57.45 fg/troph
[2]; 2.5x IC50, 32 h, Mean
  %Hb: 6.89%
  %Heme: 13.61%
  %Hemozoin: 79.50%
  Hb Fe (fg/troph): 3.48 fg/troph
  Heme Fe (fg/troph): 7.40 fg/troph
  Hemozoin Fe (fg/troph): 43.37 fg/troph
  Total Fe (fg/troph): 54.23 fg/troph
[2]; [8]
  %Hb: 6.2660% and 6.4635% and 6.5388% and 8.2899%
  %Heme: 15.0745% and 13.6837% and 12.1024% and 13.5701%
  %Hemozoin: 78.6596% and 79.8529% and 81.3587% and 78.1400%
  Hb Fe (fg/troph): 3.4040 fg/troph and 3.6534 fg/troph and 3.3950 fg/troph and 4.4889 fg/troph
  Heme Fe (fg/troph): 8.1894 fg/troph and 7.7345 fg/troph and 6.2837 fg/troph and 7.3481 fg/troph
  Hemozoin Fe (fg/troph): 42.7326 fg/troph and 45.1360 fg/troph and 42.2421 fg/troph and 42.3122 fg/troph
  Total Fe (fg/troph): 54.33 fg/troph and 56.52 fg/troph and 51.92 fg/troph and 54.15 fg/troph
[2]; 3x IC50, 32 h, Mean
  %Hb: 8.06%
  %Heme: 18.59%
  %Hemozoin: 73.35%
  Hb Fe (fg/troph): 4.13 fg/troph
  Heme Fe (fg/troph): 9.47 fg/troph
  Hemozoin Fe (fg/troph): 38.59 fg/troph
  Total Fe (fg/troph): 52.57 fg/troph
[2]; [9]
  %Hb: 7.5148% and 8.7626% and 7.4537% and 8.4952%
  %Heme: 20.9692% and 17.6208% and 15.9272% and 19.8532%
  %Hemozoin: 71.5161% and 73.6166% and 76.6190% and 71.6515%
  Hb Fe (fg/troph): 3.8296 fg/troph and 4.6352 fg/troph and 3.9291 fg/troph and 4.5643 fg/troph
  Heme Fe (fg/troph): 10.6861 fg/troph and 9.3209 fg/troph and 8.3957 fg/troph and 10.6667 fg/troph
  Hemozoin Fe (fg/troph): 36.4452 fg/troph and 38.9409 fg/troph and 40.3879 fg/troph and 38.4969 fg/troph
  Total Fe (fg/troph): 50.96 fg/troph and 52.90 fg/troph and 52.71 fg/troph and 53.73 fg/troph
[3]; Log conc. (uM) 0.39794
  % Inhibition of ookinete conversion: 72.78% and 76.99% and 75.53% and 88.24% and 87.02% and 67.23% and 81.09%
[3]; Log conc. (uM) 0.69897
  % Inhibition of ookinete conversion: 88.00% and 95.67% and 86.70% and 98.41% and 98.02% and 73.84% and 94.25%
[3]; Log conc. (uM) 1
  % Inhibition of ookinete conversion: 99.93% and 99.92% and 99.83% and 99.70% and 99.35% and 98.41% and 99.32%
[3]; Log conc. (uM) -1.70927
  % Inhibition of ookinete conversion: 0.00%
[3]; Plasmodium berghei, read-out: IC50 inhibition of ookinete formation, mean, N = 7
  IC50: 1500 nM
